Literature values in the PKSmart pharmacokinetics tables (Seal et al. 2025).

Legend:
[1] = not given per row; by the article one of three: Lombardo et al. 2013, J Clin Pharmacol 53:178, doi 10.1177/0091270012440282; 'New Drugs at FDA', novel drug approvals for 2021 and 2022 (the article's reference 43); Yap, Li, Chen 2006, J Mol Graph Model 24:383, doi 10.1016; settings: human; in vivo
[2] = Lombardo et al. 2013, J Clin Pharmacol 53:178, doi 10.1177/0091270012440282; settings: for Vd / clearance: in vivo, iv; for fraction unbound: plasma

Row | Compound | Vd [1] | clearance [1] | Vd ([2]; rat) | clearance ([2]; rat) | Vd ([2]; dog) | clearance ([2]; dog) | fraction unbound ([2]; dog) | Vd ([2]; monkey) | clearance ([2]; monkey) | fraction unbound ([2]; monkey) | fraction unbound ([2]; rat)
1 | O=C1C=CC=CC1=C1NC(=C2C=CC=CC2=O)N(c2ccc(C(=O)O)cc2)N1 | 0.2 L/kg | 0.84 mL/min/kg | 0.46 L/kg | 6.2 mL/min/kg | – | – | – | – | – | – | –
2 | CON=C(C(=O)NC1C(=O)N2C(C(=O)O)=C(CSc3nc(=O)c(=O)[nH]n3C)CS[C@H]12)c1csc(N)n1 (some centres undefined) | 0.09 L/kg | 0.245 mL/min/kg | 1 L/kg | 20 mL/min/kg | 0.25 L/kg | 3.95 mL/min/kg | 0.717 | 0.11 L/kg | 0.19 mL/min/kg | 0.0487 | 0.071
3 | NNc1nncc2ccccc12 | 1.5 L/kg | 70.5 mL/min/kg | 2.76 L/kg | 139 mL/min/kg | – | – | 0.29 | – | – | – | –
4 | CC(C)(C)S(=O)(=O)CC(Cc1ccccc1)C(=O)NC(Cc1cnc[nH]1)C(=O)N[C@@H](CC1CCCCC1)[C@@H](O)[C@@H](O)C1CC1 (some centres undefined) | 0.77 L/kg | 11.6 mL/min/kg | 4.4 L/kg | 119 mL/min/kg | 1.52 L/kg | 24.7 mL/min/kg | 0.0802 | 1.7 L/kg | 20 mL/min/kg | 0.167 | 0.053
5 | O=c1ncnc2[nH][nH]cc1-2 | 0.58 L/kg | – | – | – | 0.16 L/kg | – | – | – | – | – | –
6 | CON=C(C(=O)NC1C(=O)N2C(C(=O)[O-])=C(Cn3cc[n+]4ncccc34)CS[C@H]12)c1nsc(N)n1 (some centres undefined) | 0.24 L/kg | 2.1 mL/min/kg | 0.2 L/kg | 9.4 mL/min/kg | 0.2 L/kg | 3 mL/min/kg | 0.9 | 0.2 L/kg | 1.9 mL/min/kg | 0.9 | 0.93
7 | [H]/N=C(/N=C(N)N)N(C)C | 0.64 L/kg | 7.4 mL/min/kg | 0.54 L/kg | 16.8 mL/min/kg | – | – | – | – | – | – | –
8 | C[C@@H](O[C@H]1OCCN(Cc2nc(=O)[nH][nH]2)[C@H]1c1ccc(F)cc1)c1cc(C(F)(F)F)cc(C(F)(F)F)c1 | 0.94 L/kg | – | 3.2 L/kg | – | 1 L/kg | – | 0.0009 | – | – | – | 0.002
9 | CCCn1c(=O)[nH]c(=O)c2[nH]cnc21 | – | 4.16 mL/min/kg | 0.27 L/kg | 12 mL/min/kg | 0.64 L/kg | 2.4 mL/min/kg | 0.61 | – | – | – | 0.19
10 | C/N=C1/CN(O)C(c2ccccc2)=c2cc(Cl)ccc2=N1 | 0.25 L/kg | – | 1.3 L/kg | 7.8 mL/min/kg | – | – | – | – | – | – | 0.15
